Data from patent publication US9850225B2, “Compounds useful as immunomodulators” (BRISTOL-MYERS SQUIBB COMPANY, priority 2014, dated 2017).

Each molecule was assayed against PD-1/PD-L1 interaction (PD-1-Ig / PD-L1-His) (Homo sapiens (Human), UniProt Q9NZQ7) (assay: PD-1/PD-L1 Homogenous Time-Resolved Fluorescence (HTRF) binding assay). Settings: PD-1/PD-L1 HTRF binding assay; numeric value; read-out: Range or IC50.
Sequence of PD-1/PD-L1 interaction (PD-1-Ig / PD-L1-His) (Q9NZQ7 other isoform, or with tags, fused parts or gaps): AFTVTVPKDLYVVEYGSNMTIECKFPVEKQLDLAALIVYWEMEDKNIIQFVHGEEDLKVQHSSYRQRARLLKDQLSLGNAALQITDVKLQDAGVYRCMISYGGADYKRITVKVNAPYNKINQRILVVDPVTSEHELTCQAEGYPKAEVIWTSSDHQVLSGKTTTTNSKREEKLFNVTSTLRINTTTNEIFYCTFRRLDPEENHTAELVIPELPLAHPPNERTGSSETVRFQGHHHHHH
Source text: The ability of the compounds of formula (I) to bind to PD-L1 was investigated using a PD-1/PD-L1 Homogenous Time-Resolved Fluorescence (HTRF) binding assay.
Homogenous Time-Resolved Fluorescence (HTRF) Binding Assay.
The interaction of PD-1 and PD-L1 can be assessed using soluble, purified preparations of the extracellular domains of the two proteins. The PD-1 and PD-L1 protein extracellular domains were expressed as fusion proteins with detection tags, for PD-1, the tag was the Fc portion of Immunoglobulin (PD-1-Ig) and for PD-L1 it was the 6 histidine motif (PD-L1-His). All binding studies were performed in an HTRF assay buffer consisting of dPBS supplemented with 0.1% […] bovine serum albumin and 0.05% (v/v) Tween-20. For the h/PD-L1-His binding assay, inhibitors were pre-incubated with PD-L1-His (10 nM final) for 15 m in 4 μl of assay buffer, followed by addition of PD-1-Ig (20 nM final) in 1 μl of assay buffer and further incubation for 15 m. HTRF detection was achieved using europium crypate-labeled anti-Ig (1 nM final) and allophycocyanin (APC) labeled anti-His (20 nM final). Antibodies were diluted in HTRF detection buffer and 5 μl was dispensed on top of the binding reaction. […] Additional binding assays were established between the human proteins PD-1-Ig/PD-L2-His (20 & 5 nM, respectively) and CD80-His/PD-L1-Ig (100 & 10 nM, respectively). […]
`CC(=O)NCCNCc1ccc(OCc2cccc(-c3ccccc3)c2C)cc1OCc1cccc(NC(=O)OC(C)(C)C)c1` [Example 1119, tert-butyl (3-((2-(((2-acetamidoethyl)amino)methyl)-5-((2-methyl-[1,1′-biphenyl]-3-yl)methoxy)phenoxy)methyl)phenyl)carbamate] was tested, and the IC50 was 14200 nM.
Work on `Cc1c(COc2cc(OCc3cncc(C(=O)O)c3)c(CN[C@@H](CCCN)C(=O)O)cc2Cl)cccc1-c1ccc2c(c1)OCCO2` [Example 2002, (S)-5-((2-(((4-amino-1-carboxybutyl)amino)methyl)-4-chloro-5-((3-(2,3-dihydrobenzo[b][1,4]dioxin-6-yl)-2-methylbenzyl)oxy)phenoxy)methyl)nicotinic acid] yielded an IC50 of 10 nM.

Same assay, conditions: PD-1/PD-L1 HTRF binding assay; value given as range class; read-out: Range or IC50
Work on `Cc1c(COc2ccc(CNC(C)(CO)C(=O)O)c(OCc3cccc(C#N)c3)c2)cccc1-c1ccc2c(c1)OCCO2` (centres unmarked) [Example 1124, 2-((2-((3-cyanobenzyl)oxy)-4-((3-(2,3-dihydrobenzo[b][1,4]dioxin-6-yl)-2-methylbenzyl)oxy)benzyl)amino)-3-hydroxy-2-methylpropanoic acid] yielded an IC50 of 0.6 to 10 nM.
Molecule `Cc1c(COc2ccc(CN[C@H](CO)CC(=O)O)c(OCc3cccc(C#N)c3)c2)cccc1-c1ccc2c(c1)OCCO2` [Example 1126, (S)-3-((2-((3-cyanobenzyl)oxy)-4-((3-(2,3-dihydrobenzo[b][1,4]dioxin-6-yl)-2-methylbenzyl)oxy)benzyl)amino)-4-hydroxybutanoic acid] has an IC50 of 0.6 to 10 nM.
In the case of `CC(=O)NCCNCc1ccc(OCc2cccc(-c3ccccc3)c2C)cc1OCc1ccncc1` [Example 1111, N-(2-((4-((2-methyl-[1,1′-biphenyl]-3-yl)methoxy)-2-(pyridin-4-ylmethoxy)benzyl)amino)ethyl)acetamide], the IC50 is reported as 10 to 100 nM.
`Cc1c(COc2ccc(CN3CCCC[C@H]3C(=O)O)c(OCc3cccc(C#N)c3)c2Cl)cccc1-c1ccc2c(c1)OCCO2` [Example 1236, (S)-1-(3-chloro-2-(3-cyanobenzyloxy)-4-(3-(2,3-dihydrobenzo[b][1,4]dioxin-6-yl)-2-methylbenzyloxy)benzyl)piperidine-2-carboxylic acid] was tested, and the IC50 was 100 to 20000 nM.
`Cc1cc(CN2CCCC[C@H]2C(=O)O)c(OCc2cncc(C#N)c2)cc1OCc1cccc(-c2ccc3c(c2)OCCO3)c1C` [Example 1285, (S)-1-(2-((5-cyanopyridin-3-yl)methoxy)-4-(3-(2,3-dihydrobenzo[b][1,4]dioxin-6-yl)-2-methylbenzyloxy)-5-methylbenzyl)piperidine-2-carboxylic acid] gave an IC50 of 0.6 to 10 nM.
Molecule `Cc1cc(OCc2cccc(-c3ccc4c(c3)OCCO4)c2C)cc(OCc2cccc(C#N)c2)c1CNC[C@@H](O)CC(=O)O` [Example 1003, (S)-4-(2-(3-cyanobenzyloxy)-4-(3-(2,3-dihydrobenzo[b][1,4]dioxin-6-yl)-2-methylbenzyloxy)-6-methylbenzylamino)-3-hydroxybutanoic acid] has an IC50 of 0.6 to 10 nM.
Work on `CCc1cc(CN[C@](C)(CO)C(=O)O)c(OCc2cccc(C#N)c2)cc1OCc1cccc(-c2ccc3c(c2)OCCO3)c1C` [Example 1291, (R)-2-(2-(3-cyanobenzyloxy)-4-(3-(2,3-dihydrobenzo[b][1,4]dioxin-6-yl)-2-methylbenzyloxy)-5-ethylbenzylamino)-3-hydroxy-2-methylpropanoic acid] yielded an IC50 of 0.6 to 10 nM.
`Cc1c(COc2ccc(CN[C@@H](C(=O)O)[C@@H](C)O)c(OCc3cccc(C#N)c3)c2)cccc1-c1ccccc1` [Example 1013, (2R,3R)-2-((2-((3-cyanobenzyl)oxy)-4-((2-methyl-[1,1′-biphenyl]-3-yl)methoxy)benzyl)amino)-3-hydroxybutanoic acid] was tested, and the IC50 was 0.6 to 10 nM.
With `Cc1c(COc2cc(OCc3cncc(C#N)c3)c(CN[C@@](C)(CO)C(=O)O)cc2Cl)cccc1-c1ccc2c(c1)OCCO2` [Example 1252, (S)-2-(5-chloro-2-((5-cyanopyridin-3-yl)methoxy)-4-(3-(2,3-dihydrobenzo[b][1,4]dioxin-6-yl)-2-methylbenzyloxy)benzylamino)-3-hydroxy-2-methylpropanoic acid] the IC50 was 0.6 to 10 nM.
`Cc1c(COc2ccc(CNC[C@@H](O)CC(=O)O)c(OCc3cccc(C#N)c3)c2)cccc1-c1ccccc1` [Example 1011, (S)-4-((2-((3-cyanobenzyl)oxy)-4-((2-methyl-[1,1′-biphenyl]-3-yl)methoxy)benzyl)amino)-3-hydroxybutanoic acid] showed an IC50 of 0.6 to 10 nM.
For `CC(=O)NCCNCc1ccc(OCc2cccc(-c3ccccc3)c2C)cc1OCc1cccc2ccccc12` [Example 1063, N-(2-((4-((2-methyl-[1,1′-biphenyl]-3-yl)methoxy)-2-(naphthalen-1-ylmethoxy)benzyl)amino)ethyl)acetamide], the IC50 was 100 to 20000 nM.
`CC(=O)NCCNCc1cc(Br)c(OCc2cccc(-c3ccc4c(c3)OCCO4)c2C)cc1OCc1cncc(C#N)c1` [Example 1317, N-(2-(5-bromo-2-((5-cyanopyridin-3-yl)methoxy)-4-(3-(2,3-dihydrobenzo[b][1,4]dioxin-6-yl)-2-methylbenzyloxy)benzylamino)ethyl)acetamide] showed an IC50 of 0.6 to 10 nM.
Molecule `CC(=O)NCCNCc1ccc(OCc2cccc(-c3ccccc3)c2C)cc1OCc1ccccc1OC(F)F` [Example 1085, N-(2-((2-((2-(difluoromethoxy)benzyl)oxy)-4-((2-methyl-[1,1′-biphenyl]-3-yl)methoxy)benzyl)amino)ethyl)acetamide] has an IC50 of 100 to 20000 nM.
In the case of `Cc1c(COc2cc(OCc3cccc(C#N)c3)c(CN[C@@H](Cc3cscn3)C(=O)O)cc2Cl)cccc1-c1ccc2c(c1)OCCO2` [Example 1208, (S)-2-((5-chloro-2-((3-cyanobenzyl)oxy)-4-((3-(2,3-dihydrobenzo[b][1,4]dioxin-6-yl)-2-methylbenzyl)oxy)benzyl)amino)-3-(thiazol-4-yl)propanoic acid], the IC50 is reported as 0.6 to 10 nM.
`Cc1c(COc2cc(OCc3cccc(C#N)c3)c(CN[C@@H](CC(=O)O)C(=O)O)cc2Cl)cccc1-c1ccc2c(c1)OCCO2` [Example 1158, (S)-2-((5-chloro-2-((3-cyanobenzyl)oxy)-4-((3-(2,3-dihydrobenzo[b][1,4]dioxin-6-yl)-2-methylbenzyl)oxy)benzyl)amino)succinic acid] gave an IC50 of 0.6 to 10 nM.
For `Cc1c(COc2cc(OCc3cccc(C#N)c3)c(CNC(CCS(C)(=O)=O)C(=O)O)cc2Cl)cccc1-c1ccc2c(c1)OCCO2` (centres unmarked) [Example 1182, 2-((5-chloro-2-((3-cyanobenzyl)oxy)-4-((3-(2,3-dihydrobenzo[b][1,4]dioxin-6-yl)-2-methylbenzyl)oxy)benzyl)amino)-4-(methylsulfonyl)butanoic acid], the IC50 was 0.6 to 10 nM.
`Cc1c(COc2cc(OCc3cncc(C#N)c3)c(CN[C@@H](Cc3ccccn3)C(=O)O)cc2Cl)cccc1-c1ccc2c(c1)OCCO2` [Example 2009, (S)-2-((5-chloro-2-((5-cyanopyridin-3-yl)methoxy)-4-((3-(2,3-dihydrobenzo[b][1,4]dioxin-6-yl)-2-methylbenzyl)oxy)benzyl)amino)-3-(pyridin-2-yl)propanoic acid] was tested, and the IC50 was 0.6 to 10 nM.
`CC(=O)NCCNCc1ccc(OCc2cccc(-c3ccccc3)c2C)cc1OCc1ccc(F)c(F)c1` [Example 1059, N-(2-((2-((3,4-difluorobenzyl)oxy)-4-((2-methyl-[1,1′-biphenyl]-3-yl)methoxy)benzyl)amino)ethyl)acetamide] showed an IC50 of 100 to 20000 nM.
For `Cc1c(COc2cc(OCc3cccc(C#N)c3)c(CN3CCc4nc[nH]c4C3C(=O)O)cc2Cl)cccc1-c1ccc2c(c1)OCCO2` (centres unmarked) [Example 1226, 5-(5-chloro-2-((3-cyanobenzyl)oxy)-4-((3-(2,3-dihydrobenzo[b][1,4]dioxin-6-yl)-2-methylbenzyl)oxy)benzyl)-4,5,6,7-tetrahydro-3H-imidazo[4,5-c]pyridine-4-carboxylic acid], the IC50 was 10 to 100 nM.
With `Cc1c(COc2cc(OCc3cncc(C#N)c3)c(CN3CC[C@@H](O)C[C@H]3C(=O)O)cc2Cl)cccc1-c1ccc2c(c1)OCCO2` [Example 2008, (2S,4R)-1-(5-chloro-2-((5-cyanopyridin-3-yl)methoxy)-4-((3-(2,3-dihydrobenzo[b][1,4]dioxin-6-yl)-2-methylbenzyl)oxy)benzyl)-4-hydroxypiperidine-2-carboxylic acid] the IC50 was 0.6 to 10 nM.
`COc1cc(OCc2cccc(-c3ccccc3)c2C)cc(OCc2cccc(C#N)c2)c1CNC[C@@H](O)CC(=O)O` [Example 1133, (S)-4-((2-((3-cyanobenzyl)oxy)-6-methoxy-4-((2-methyl-[1,1′-biphenyl]-3-yl)methoxy)benzyl)amino)-3-hydroxybutanoic acid] gave an IC50 of 0.6 to 10 nM.
`CCOC(=O)Nc1cncc(COc2cc(OCc3cccc(-c4ccc5c(c4)OCCO5)c3C)c(Cl)cc2C=O)c1` [Example 3008, ethyl (5-((4-chloro-5-((3-(2,3-dihydrobenzo[b][1,4]dioxin-6-yl)-2-methylbenzyl)oxy)-2-formylphenoxy)methyl)pyridin-3-yl)carbamate] gave an IC50 of 0.6 to 10 nM.
Molecule `CC(=O)NCCNCc1ccc(OCc2cccc(-c3ccccc3)c2C)cc1OCc1ccc(F)c(Cl)c1` [Example 1110, N-(2-((2-((3-chloro-4-fluorobenzyl)oxy)-4-((2-methyl-[1,1′-biphenyl]-3-yl)methoxy)benzyl)amino)ethyl)acetamide] has an IC50 of 100 to 20000 nM.

Same assay, conditions: read-out: Range or IC50
Molecule `CC(=O)NCCNCc1ccc(OCc2cccc(-c3ccccc3)c2C)cc1OCc1cccc([N+](=O)[O-])c1` [Example 1076] has an IC50 of 10 to 100 nM.
